For one assay, the target named is Human Cot (Homo sapiens (Human), UniProt P41279). Nature of the assay: High Throughput Cot Biochemical Assay.
Another assay deals with TNFα. The experiment in a line: Cot Monocyte TNFα Cell Based Assay.
Where [1] appears, read: IC50 HTRF, Cot HTRF (TR-FRET) biochemical assay.
Where [2] appears, read: Homo sapiens, Monocyte, read-out: EC50 TNF, LPS-stimulated human monocytes, TNFα.
The mark [3] stands for this setting: read-out: IC50 HTRF, Cot HTRF (TR-FRET) biochemical assay.
[4] abbreviates: read-out: EC50 TNF, LPS-stimulated human monocytes, TNFα.

The structures appear in SMILES notation. Like-named read-outs stand apart in the source and are kept apart here.

Human Cot, sequence (P41279 30-397): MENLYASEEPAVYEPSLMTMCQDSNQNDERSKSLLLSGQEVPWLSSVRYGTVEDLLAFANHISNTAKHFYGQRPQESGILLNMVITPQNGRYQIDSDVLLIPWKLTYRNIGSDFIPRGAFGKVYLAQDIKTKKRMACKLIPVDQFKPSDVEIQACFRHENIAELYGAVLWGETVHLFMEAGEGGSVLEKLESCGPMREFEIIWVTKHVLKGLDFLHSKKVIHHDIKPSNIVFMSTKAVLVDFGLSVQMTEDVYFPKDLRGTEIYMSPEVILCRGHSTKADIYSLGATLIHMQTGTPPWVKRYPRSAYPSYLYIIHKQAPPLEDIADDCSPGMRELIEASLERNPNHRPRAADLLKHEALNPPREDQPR
Procedure for TNFα: The cell suspension was then plated at a density of 5,000 cells/well onto black 384 well Greiner clear bottom plates. Plates were pre-spotted with test compounds and serially diluted in DMSO where 200 nL/well were delivered using the Echo 550 acoustic liquid dispenser (Labcyte®) for a final DMSO concentration of 0.5%. Plated cells were treated with compound for 1 hour at 37° C. Cells were then stimulated with 50 pg/ml of LPS (Sigma) excluding outside columns of plate used for unstimulated cell control wells. Cells were incubated for an additional 4 hours at 37° C. Cells were then spun out of the media and 5 μl of sample were taken and analyzed for total TNFα content using the TR-FRET Human TNFα detection system (CisBio). This system utilizes two labeled antibodies (cryptate and XL665) that bind to two different epitopes of the TNFα molecule and produce FRET signal proportional to the concentration of TNFα in the sample. […] Plates were covered with clear seals and incubated at room temp overnight. […] Percent of control was calculated as follows: % Control=100×(RatioSample−Ratio0% Stimulation)/(Ratio100% Stimulation−Ratio0% Stimulation) where unstimulated cells (0% stimulation) were the negative control and stimulated cells (100% stimulation) were used as the positive control.

On to `Cc1ncsc1[C@H](Nc1cc(Cl)c2ncc(C#N)c(Nc3cccc(Cl)c3F)c2c1)c1cn(C(C)C)nn1` [Example 252, (R)-8-chloro-4-((3-chloro-2-fluorophenyl)amino)-6-(((1-isopropyl-1H-1,2,3-triazol-4-yl)(4-methylthiazol-5-yl)methyl)-amino)quinoline-3-carbonitrile], for which the half-maximal inhibitory concentration (IC50) (in general, the concentration that gives 50% inhibition) at Human Cot (setting [1]) is 6 nM. For the same molecule, in the assay on TNFα (setting [2]), the 50% effective concentration (EC50) – broadly, the concentration needed to bring the measured effect to its halfway point – was 119 nM.
At Human Cot (setting [1]), `Cc1ncsc1[C@H](Nc1cc(Cl)c2ncc(C#N)c(Nc3cccc(Cl)c3F)c2c1)c1cn(C2CCN(C(C)(C)C)CC2)nn1` [Example 253, (R)-6-(((1-(1-(tert-butyl)piperidin-4-yl)-1H-1,2,3-triazol-4-yl)(4-methylthiazol-5-yl)methyl)amino)-8-chloro-4-((3-chloro-2-fluorophenyl)amino)quinoline-3-carbonitrile] gave an IC50 of 4 nM. Moreover, the EC50 in the assay on TNFα (setting [2]) amounted to 66 nM.
In the same order, the values of `CC[C@@H](Nc1c(C#N)cnc2c(Cl)cc(N[C@@H](c3cccnc3)c3c[nH]nn3)cc12)c1ccccc1` [Example 254, 8-chloro-4-(((R)-1-phenylpropyl)amino)-6-(((S)-pyridin-3-yl(1H-1,2,3-triazol-4-yl)methyl)amino)quinoline-3-carbonitrile] are 3 nM and 230 nM.
At Human Cot (setting [1]), `C[C@@H](Nc1c(C#N)cnc2c(Cl)cc(N[C@@H](c3cccnc3)c3c[nH]nn3)cc12)c1ccccc1` [Example 255, 8-chloro-4-(((R)-1-phenylethyl)amino)-6-(((S)-pyridin-3-yl(1H-1,2,3-triazol-4-yl)methyl)amino)quinoline-3-carbonitrile] showed a concentration for half-maximal inhibition (IC50) of 10 nM. Also, in the assay on TNFα (setting [2]), the concentration for a half-maximal effect (EC50) turned out to be 766 nM.
`N#Cc1cnc2c(Cl)cc(N[C@@H](c3cccnc3)c3c[nH]nn3)cc2c1Nc1ccc(Cl)c(Cl)c1F` [Example 256, (S)-8-chloro-4-((3,4-dichloro-2-fluorophenyl)amino)-6-((pyridin-3-yl(1H-1,2,3-triazol-4-yl)methyl)-amino)quinoline-3-carbonitrile] registered a half-inhibitory concentration (IC50) on Human Cot (setting [1]) of 16 nM. Further, the EC50 in the assay on TNFα (setting [2]) worked out at 341 nM.
The molecule `N#Cc1cnc2c(Cl)cc(N[C@@H](c3cccnc3)c3c[nH]nn3)cc2c1Nc1cccc(Cl)c1F` [Example 257, (S)-8-chloro-4-((3-chloro-2-fluorophenyl)amino)-6-((pyridin-3-yl(1H-1,2,3-triazol-4-yl)methyl)-amino)quinoline-3-carbonitrile] gave a 50% inhibitory concentration (IC50) against Human Cot (setting [1]) of 6 nM. Besides, the half-maximal effective concentration (EC50) with TNFα (setting [2]) came to 212 nM.
For the molecule `CC[C@@H](Nc1c(C#N)cnc2c(Cl)cc(N[C@@H](c3cccnc3)c3cn(C4CCN(C(C)(C)C)CC4)nn3)cc12)c1ccccc1` [Example 258], at Human Cot (setting [3]), the IC50 is 2 nM. In addition, in the assay on TNFα (setting [4]), the 50% effective concentration (EC50) amounted to 33 nM.
In the case of `C[C@@H](Nc1c(C#N)cnc2c(Cl)cc(N[C@@H](c3cccnc3)c3cn(C4CCN(C(C)(C)C)CC4)nn3)cc12)c1ccccc1` [Example 259, 6-(((S)-(1-(1-(tert-butyl)piperidin-4-yl)-1H-1,2,3-triazol-4-yl)(pyridin-3-yl)methyl)amino)-8-chloro-4-(((R)-1-phenylethyl)amino)quinoline-3-carbonitrile], at Human Cot (setting [1]), the IC50 was determined as 6 nM. The concentration for a half-maximal effect (EC50) in the assay with TNFα (setting [2]) was 158 nM.
In the same order, the values of `CC(C)(C)N1CCC(n2cc([C@@H](Nc3cc(Cl)c4ncc(C#N)c(Nc5ccc(Cl)c(Cl)c5F)c4c3)c3cccnc3)nn2)CC1` [Example 260, (S)-6-(((1-(1-(tert-butyl)piperidin-4-yl)-1H-1,2,3-triazol-4-yl)(pyridin-3-yl)methyl)amino)-8-chloro-4-((3,4-dichloro-2-fluorophenyl)amino)-quinoline-3-carbonitrile] are 6 nM and 126 nM.
The like results for `Cc1nc([C@H](Nc2cc(Cl)c3ncc(C#N)c(Nc4ccc(F)c(Cl)c4)c3c2)c2cn(C3CCN(C(C)(C)C)CC3)nn2)c(C)o1` [Example 262, (S)-6-(((1-(1-(tert-butyl)piperidin-4-yl)-1H-1,2,3-triazol-4-yl)(2,5-dimethyloxazol-4-yl)methyl)amino)-8-chloro-4-((3-chloro-4-fluorophenyl)amino)quinoline-3-carbonitrile] were, in that order, 11 nM and 130 nM.
In the same order, the values of `CC(C)(C)N1CCC(n2cc([C@@H](Nc3cc(Cl)c4ncc(C#N)c(Nc5ccc(F)c(Cl)c5)c4c3)C3=CCOCC3)nn2)CC1` [Example 264, (S)-6-(((1-(1-(tert-butyl)piperidin-4-yl)-1H-1,2,3-triazol-4-yl)(3,6-dihydro-2H-pyran-4-yl)methyl)amino)-8-chloro-4-((3-chloro-4-fluorophenyl)-amino)quinoline-3-carbonitrile] are 2 nM and 70 nM.
On Human Cot (setting [1]), `Cn1cnc([C@H](Nc2cc(Cl)c3ncc(C#N)c(Nc4ccc(F)c(Cl)c4)c3c2)c2cn(C3CCN(C(C)(C)C)CC3)nn2)c1` [Example 267, (S)-6-(((1-(1-(tert-butyl)piperidin-4-yl)-1H-1,2,3-triazol-4-yl)(1-methyl-1H-imidazol-4-yl)methyl)amino)-8-chloro-4-((3-chloro-4-fluorophenyl)-amino)quinoline-3-carbonitrile] came in with a half-maximal inhibitory concentration (IC50) of 30 nM. In the assay on TNFα (setting [2]), the 50% effective concentration (EC50) was determined as 5120 nM.
Regarding `Cc1ccc([C@H](Nc2cc(Cl)c3ncc(C#N)c(Nc4ccc(F)c(Cl)c4)c3c2)c2c[nH]nn2)cn1` [Example 271, (S)-8-chloro-4-((3-chloro-4-fluorophenyl)amino)-6-(((6-methylpyridin-3-yl)(1H-1,2,3-triazol-4-yl)methyl)amino)quinoline-3-carbonitrile], half-maximal inhibition against Human Cot (setting [1]) (IC50) required 9 nM. For the same molecule, the EC50 in the assay on TNFα (setting [2]) came out at 826 nM.
In the same order, the values of `Cc1ccc([C@H](Nc2cc(Cl)c3ncc(C#N)c(Nc4ccc(F)c(Cl)c4)c3c2)c2cn(COC(=O)C(C)(C)C)nn2)cn1` [Example 273, (S)-(4-(((8-chloro-4-((3-chloro-4-fluorophenyl)amino)-3-cyanoquinolin-6-yl)amino)(6-methylpyridin-3-yl)methyl)-1H-1,2,3-triazol-1-yl)methyl pivalate] are 51 nM and 1560 nM.
In the same order, the values of `N#Cc1cnc2c(Cl)cc(N[C@H](c3c[nH]nn3)c3csc4c3CCNC4)cc2c1Nc1ccc(F)c(Cl)c1` [Example 275, (S)-8-chloro-4-((3-chloro-4-fluorophenyl)amino)-6-(((4,5,6,7-tetrahydrothieno[2,3-c]pyridin-3-yl)(1H-1,2,3-triazol-4-yl)methyl)-amino)quinoline-3-carbonitrile] are 7 nM and 2330 nM.
Molecule `N#Cc1cnc2c(Cl)cc(N[C@@H](c3cscn3)c3c[nH]nn3)cc2c1Nc1ccc(F)c(Cl)c1` [Example 276, (S)-8-chloro-4-((3-chloro-4-fluorophenyl)amino)-6-((thiazol-4-yl(1H-1,2,3-triazol-4-yl)methyl)amino)quinoline-3-carbonitrile] yielded an IC50 against Human Cot (setting [1]) of 6 nM. Besides, the 50% effective concentration (EC50) in the assay with TNFα (setting [2]) is 789 nM.
With `N#Cc1cnc2c(Cl)cc(N[C@H](c3c[nH]nn3)c3cncs3)cc2c1Nc1ccc(F)c(Cl)c1` [Example 277, (R)-B-chloro-4-((3-chloro-4-fluorophenyl)amino)-6-((thiazol-5-yl(1H-1,2,3-triazol-4-yl)methyl)amino)quinoline-3-carbonitrile], at Human Cot (setting [3]), the half-inhibitory concentration (IC50) was found to be 7 nM. For the same molecule, in the assay on TNFα (setting [4]), the EC50 turned out to be 923 nM.
Take `CCN1CCc2c([C@H](Nc3cc(Cl)c4ncc(C#N)c(Nc5ccc(F)c(Cl)c5)c4c3)c3cn(C4COC4)nn3)csc2C1` [Example 278, (S)-8-chloro-4-((3-chloro-4-fluorophenyl)amino)-6-(((6-ethyl-4,5,6,7-tetrahydro-thieno[2,3-c]pyridin-3-yl)(1-(oxetan-3-yl)-1H-1,2,3-triazol-4-yl)methyl)amino)quinoline-3-carbonitrile]: at Human Cot, the IC50 came to 3 nM. For the same molecule, the 50% effective concentration (EC50) in the assay with TNFα (Homo sapiens, Monocyte, read-out: EC50 TNF) stood at 269 nM.
`N#Cc1cnc2c(Cl)cc(N[C@H](c3cn(C4COC4)nn3)c3csc4c3CCNC4)cc2c1Nc1ccc(F)c(Cl)c1` [Example 279, (S)-8-chloro-4-((3-chloro-4-fluorophenyl)amino)-6-(((1-(oxetan-3-yl)-1H-1,2,3-triazol-4-yl)(4,5,6,7-tetrahydrothieno[2,3-c]pyridin-3-yl)methyl)amino)quinoline-3-carbonitrile]: the half-maximal inhibitory concentration (IC50) against Human Cot (setting [1]) came out at 3 nM. The half-maximal effective concentration (EC50) in the assay with TNFα (setting [2]) is 457 nM.
On to `Cc1ncccc1[C@H](Nc1cc(Cl)c2ncc(C#N)c(Nc3ccc(F)c(Cl)c3)c2c1)c1cn(C2CCN(C(C)(C)C)CC2)nn1` [Example 283], for which the IC50 on Human Cot (setting [3]) was 3 nM. The EC50 with TNFα (setting [4]) amounted to 50 nM.
Turning to `CC(C)(C)N1CCC(n2cc([C@@H](Nc3cc(Cl)c4ncc(C#N)c(Nc5ccc(F)c(F)c5)c4c3)c3cccnc3)nn2)CC1` [Example 285, (S)-6-(((1-(1-(tert-butyl)piperidin-4-yl)-1H-1,2,3-triazol-4-yl)(pyridin-3-yl)methyl)amino)-8-chloro-4-((3,4-difluorophenyl)amino)quinoline-3-carbonitrile], at Human Cot (setting [1]), half-maximal inhibition (IC50) was put at 8 nM. In addition, the EC50 in the assay on TNFα (setting [2]) came to 219 nM.
As to `CC(C)(C)N1CCC(n2cc([C@@H](Nc3cc(Cl)c4ncc(C#N)c(Nc5cccc(Cl)c5F)c4c3)c3cccnc3)nn2)CC1` [Example 286], the half-inhibitory concentration (IC50) on Human Cot (setting [3]) was found to be 4 nM. Besides, the EC50 in the assay with TNFα (setting [4]) worked out at 121 nM.
As to `CC(C)(C)N1CCC(n2cc([C@@H](Nc3cc(Cl)c4ncc(C#N)c(NC5CCCCCC5)c4c3)c3cccnc3)nn2)CC1` [Example 288, (S)-6-(((1-(1-(tert-butyl)piperidin-4-yl)-1H-1,2,3-triazol-4-yl)(pyridin-3-yl)methyl)amino)-8-chloro-4-(cycloheptylamino)quinoline-3-carbonitrile], on Human Cot (setting [1]), the midpoint of inhibition, the IC50, lay at 26 nM. Besides, the 50% effective concentration (EC50) in the assay with TNFα (setting [2]) was 1060 nM.
In the same order, the values of `Cc1nc(Cl)ccc1[C@H](Nc1cc(Cl)c2ncc(C#N)c(Nc3ccc(F)c(Cl)c3)c2c1)c1cn(C(C)C)nn1` [Example 294, (S)-8-chloro-6-(((6-chloro-2-methylpyridin-3-yl)(1-isopropyl-1H-1,2,3-triazol-4-yl)methyl)amino)-4-((3-chloro-4-fluorophenyl)amino)quinoline-3-carbonitrile] are 9 nM and 166 nM.

The values are drawn from US11066414B2, “Cot modulators and methods of use thereof” (Gilead Sciences, Inc., priority 2015, dated 2021).
